Measured values taken from publication PMC6943558, “Covalent Inhibition of the Histamine H3 Receptor” (Molecules, 2019).
Read-outs that look alike come from different tables or passages of the source.

Legend:
[1] = target: T1, hH3R (human histamine H3 receptor) (Homo sapiens, UniProt Q9Y5N1); assay: [3H]NAMH displacement, cell homogenates; type: biochemical
T1 construct: gene HRH3; transiently transfected cDNA, HEK293T cell homogenates

[2] = target: T2, Nanoluc-H4R (histamine H4 receptor) (Homo sapiens, UniProt Q9H3N8); assay: NanoBRET displacement of clobenpropit-BODIPY; type: cell-based; conditions: fluorescent tracer clobenpropit-BODIPY
T2 construct: gene HRH4; NanoLuc reporter fusion (Nluc-H4R); details not in the main text
T2 sequence (Q9H3N8 whole entry, the tested form may be a part): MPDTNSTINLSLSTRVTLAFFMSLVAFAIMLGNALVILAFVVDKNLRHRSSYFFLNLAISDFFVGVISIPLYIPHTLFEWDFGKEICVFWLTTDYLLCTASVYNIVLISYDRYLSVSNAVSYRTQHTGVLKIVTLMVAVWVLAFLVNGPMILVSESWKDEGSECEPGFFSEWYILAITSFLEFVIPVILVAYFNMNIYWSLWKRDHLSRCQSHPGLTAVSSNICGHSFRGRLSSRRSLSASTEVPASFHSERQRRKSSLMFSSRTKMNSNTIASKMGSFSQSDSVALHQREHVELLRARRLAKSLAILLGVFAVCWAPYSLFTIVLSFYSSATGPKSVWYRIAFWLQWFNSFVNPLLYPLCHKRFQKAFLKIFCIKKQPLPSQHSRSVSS

[3] = target: T1, hH3R (human histamine H3 receptor); assay: […]GTPγS binding, cell homogenates; type: biochemical
[4] = target: T1, hH3R (human histamine H3 receptor); assay: […]GTPγS binding, cell homogenates; type: biochemical; remark: listed apart in the source

T1 sequence (Q9Y5N1 whole entry): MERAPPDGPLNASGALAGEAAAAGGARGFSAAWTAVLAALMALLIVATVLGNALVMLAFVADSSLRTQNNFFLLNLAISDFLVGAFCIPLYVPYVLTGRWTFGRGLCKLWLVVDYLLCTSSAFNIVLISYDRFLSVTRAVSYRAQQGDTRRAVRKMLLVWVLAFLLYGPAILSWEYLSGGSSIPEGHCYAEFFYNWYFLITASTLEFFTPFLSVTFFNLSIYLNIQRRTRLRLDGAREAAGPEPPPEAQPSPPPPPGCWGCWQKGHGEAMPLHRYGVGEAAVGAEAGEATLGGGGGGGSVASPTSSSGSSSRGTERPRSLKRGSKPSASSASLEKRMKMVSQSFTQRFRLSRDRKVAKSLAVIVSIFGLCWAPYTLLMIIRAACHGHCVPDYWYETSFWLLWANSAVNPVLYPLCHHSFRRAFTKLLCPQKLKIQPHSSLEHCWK

Compound	Ki ([1]; read-out: pKi (converted))	further results
C=Cc1nc(-c2ccccc2)cc(N2CCN(C)CC2)n1 [compound 1, VUF14480]	> 10000 nM	–
Cc1nc(-c2ccccc2)cc(N2CCN(C)CC2)n1 [compound 2, 2]	79.4 nM	–
CC(C)c1cc(N2CC(N(C)C)C2)nc(N)n1 [compound 10, 10]	50.1 nM	–
CC(C)c1cc(N2CCN(C3CCC3)CC2)nc(N)n1 [compound 11, 11]	200 nM	–
Cc1cc(N2CCN(C3CCC3)CC2)nc(N)n1 [compound 12, 12]	316 nM	–
C#Cc1nc(C)cc(N2CCN(C3CCC3)CC2)n1 [compound 20, 20]	> 10000 nM	–
C=Cc1nc(C(C)C)cc(N2CC(N(C)C)C2)n1 [compound 21, 21]	> 10000 nM	–
C=Cc1nc(C(C)C)cc(N2CCN(C3CCC3)CC2)n1 [compound 22, 22]	3160 nM	–
C=Cc1nc(C)cc(N2CCN(C3CCC3)CC2)n1 [compound 23, 23]	3980 nM	–
Cc1nc(C(C)C)cc(N2CC(N(C)C)C2)n1 [compound 34, 34]	> 10000 nM	–
CCc1nc(C(C)C)cc(N2CC(N(C)C)C2)n1 [compound 35, 35]	> 10000 nM	–
Cc1nc(C(C)C)cc(N2CCN(C3CCC3)CC2)n1 [compound 36, 36]	1260 nM	–
CCc1nc(C(C)C)cc(N2CCN(C3CCC3)CC2)n1 [compound 37, 37]	3160 nM	–
Nc1cccc(N2CCN(C3CCC3)CC2)c1 [compound 42, 3-(4-Cyclobutylpiperazin-1-yl)aniline]	1260 nM	no tracer displacement up to 10 μM [2]: > 10 µM
O=C(CCl)Nc1cccc(N2CCN(C3CCC3)CC2)c1 [compound 43, 43]	631 nM	–
S=C=Nc1cccc(N2CCN(C3CCC3)CC2)c1 [compound 44, 1-Cyclobutyl-4-(3-isothiocyanatophenyl)piperazine]	316 nM	EC50 [3]: 79.4 nM; no tracer displacement up to 10 μM [2]: > 10 µM; IC50 [4]: 794 nM
NCCc1c[nH]cn1 [histamine]	–	Ki ([1]; 50 mM Tris-HCl pH 7.4, 25 °C, vehicle-pretreated homogenates): Radioligand displacement curves of [^3H]NAMH with histamine on cell homogenates
